Reference: the NIST ThermoML archive (doi:10.1016/j.fluid.2008.03.012)

Experiment: excess molar enthalpy (molar enthalpy of mixing); xn = mol fraction of the nth substance listed
Settings: Liquid, Flow calorimetry

CCOC(=O)CC(C)=O [ethyl 3-oxobutanoate] + CC(C)O
excess molar enthalpy [kcal/mol]
Settings | 298.15 K | 313.15 K | 328.15 K
100 kPa, x1 = 0.0997 | 0.236 | 0.266 | 0.283
100 kPa, x1 = 0.1998 | 0.369 | 0.422 | 0.454
100 kPa, x1 = 0.2999 | 0.446 | 0.518 | 0.556
100 kPa, x1 = 0.3499 | 0.472 | 0.547 | 0.586
100 kPa, x1 = 0.4003 | 0.488 | 0.565 | 0.605
100 kPa, x1 = 0.4496 | 0.496 | 0.574 | 0.612
100 kPa, x1 = 0.5003 | 0.498 | 0.573 | 0.61
100 kPa, x1 = 0.5494 | 0.491 | 0.562 | 0.597
100 kPa, x1 = 0.5995 | 0.476 | 0.543 | 0.573
100 kPa, x1 = 0.6505 | 0.452 | 0.513 | 0.538
100 kPa, x1 = 0.7008 | 0.42 | 0.473 | 0.494
100 kPa, x1 = 0.7999 | 0.328 | 0.359 | 0.373
100 kPa, x1 = 0.9006 | 0.185 | 0.198 | 0.203
10000 kPa, x1 = 0.0994 | 0.231 | 0.26 | 0.276
10000 kPa, x1 = 0.1993 | 0.358 | 0.409 | 0.447
10000 kPa, x1 = 0.2992 | 0.435 | 0.498 | 0.548
10000 kPa, x1 = 0.3491 | 0.459 | 0.527 | 0.578
10000 kPa, x1 = 0.3995 | 0.477 | 0.544 | 0.597
10000 kPa, x1 = 0.4488 | 0.485 | 0.553 | 0.604
10000 kPa, x1 = 0.4995 | 0.487 | 0.551 | 0.602
10000 kPa, x1 = 0.5486 | 0.482 | 0.541 | 0.59
10000 kPa, x1 = 0.5987 | 0.468 | 0.522 | 0.566
10000 kPa, x1 = 0.6497 | 0.447 | 0.491 | 0.532
10000 kPa, x1 = 0.7001 | 0.417 | 0.452 | 0.487
10000 kPa, x1 = 0.7994 | 0.326 | 0.342 | 0.367
10000 kPa, x1 = 0.9003 | 0.184 | 0.187 | 0.199
